According to a melting point compilation (Tetko et al.; mined from patent text by program, amines drawn as free bases though some values may be those of a salt):

Row | SMILES | melting point [°C]
1 | Nc1cccc(S(=O)(=O)N2CC=CC2)c1 | 187 to 188
2 | ClCCCOc1ccc(-c2ccccc2)cc1 | 65 to 66
3 | CC(O)[C@@H](Cc1ccccc1)NC(=O)OC(C)(C)C (stereo partly specified) | 127
4 | CC1CC(NC(=O)C(F)(F)F)=NN1c1ccc(Cl)cc1 (stereo unspecified) | 170 to 172
5 | CCOC(=O)N(C)CC1CN(c2c(F)cc3c(=O)c(C(=O)O)cn(C4CC4)c3c2F)CCO1 (stereo unspecified) | 128 to 131
6 | OCc1cc(C=CCN2Cc3ccccc3C2)ccc1O | 177 to 178
7 | CC(C)n1nc(C#Cc2ccccc2F)ccc1=O | 84.5 to 86
8 | CN(C)n1cn[nH]c1=O | 127
9 | COC(=O)CCc1ccc(Nc2ccccc2[N+](=O)[O-])cc1 | 68 to 70
10 | CC12CCC(C1)C(C)(C)C2(S)CCN (stereo unspecified) | 42 to 43
11 | O=C(CS(=O)c1ccccc1)Nc1c([N+](=O)[O-])cnn1-c1c(Cl)cc(C(F)(F)F)cc1Cl (stereo unspecified) | 108 to 110
12 | NC(=O)Cc1ccc(-c2cnc3[nH]c(=O)n(CC4CCCCC4)c3n2)cc1 | 272 to 274
13 | CC(=O)NC[C@H]1CN(c2ccc(C3CCN(CC#N)CC3)c(F)c2)C(=O)O1 | 165 to 167
14 | CC(C)(O)/C=C\C(C)(C)O | 64
15 | CCc1cn(C2CC(OC(C)=O)C(CNC(=O)Cc3ccccc3NC(C)=O)O2)c(=O)[nH]c1=O (stereo unspecified) | 143 to 145
16 | COC(=O)c1ccc(CN2CCCc3cc4c(cc32)C(C)(C)CCC4(C)C)cc1 | 173 to 175
17 | CCCC(=O)c1ccc(N2CCOCC2)cc1 | 64.5 to 65.5
18 | COC(=O)CC/C(C)=C/Cc1c(N)c2c(c(C)c1OC)COC2=O | 91 to 93
19 | CC(C)(C)NN=C(O)C(=O)c1ccccc1 | 138 to 139
20 | O=C(CO)Nc1cc(-c2ccncc2)c[nH]c1=O | 271 to 274
21 | CCOc1nn(CCOc2c(CC)cccc2CC(=O)O)cc1C(=O)NCc1ccc(Cl)cc1Cl | 129 to 131
22 | O=C(CC(NC(=O)COCc1ccccc1)c1ccccc1)Nc1n[nH]c(=S)s1 (stereo unspecified) | 190 to 191
23 | Cc1c(N2CC[C@@H](C3(N)CC3)C2)ccc2c(=O)c(C(=O)O)cn(C3CC3)c12 | 230 to 233
24 | CC(C)S(=O)(=O)C(C#N)=CC=CN(C)C | 102 to 104

Row | SMILES | melting point [°C]
25 | CC[C@H](C)[C@H](NC(=O)[C@H](C)N(C(=O)OC(C)(C)C)C1CCCCC1)C(=O)N[C@@H](Cc1ccc(C(C)(C)C)cc1)[C@@H](O)[C@@H](O)CC(C)C | 171 to 172
26 | O=C(O)CCCNC(=O)c1ccccc1NC(=O)c1ccccc1Br | 117 to 118
27 | COC(=O)CCCCCCCCOC1OC(CO)C(O)C(OC2OC(CO)C(O)C(O)C2O)C1NC(C)=O (stereo unspecified) | 208 to 210
28 | CNC(=S)C1(c2ccncc2)CCCS1 (stereo unspecified) | 178
29 | CC(S)C(=O)NCCc1ccccc1 (stereo unspecified) | 78 to 79
30 | O=C(O)C1=CS[C@@H]2/C(=C\c3ccc4nc5n(c4c3)CCS5)C(=O)N12 | > 250
31 | CC(C)CNC(=O)CC1Sc2sc(S(N)(=O)=O)cc2NC1=O (stereo unspecified) | > 250
32 | O=C(c1cc(Cl)cc(Cl)c1)N1CCc2cc(S(=O)(=O)N3CC(c4ccccc4)NC3=O)ccc21 (stereo unspecified) | 236
33 | CCOCc1nc2c(N)nc3ccccc3c2n1CC1(O)CCN(C(=O)Nc2ccccc2)CC1 | 184 to 186
34 | CCCCn1c(=O)c2[nH]c(N3CCCCC3)nc2n(CCCC)c1=O | 221
35 | O=C1C2=C(CCCC2)C(=O)N1c1ccc(Cl)c2c1CC(CO)O2 (stereo unspecified) | 193 to 195
36 | O=c1oc(Nc2ccccc2F)nc2ccccc12 | 152 to 155
37 | OCc1cn(-c2ccc(OC(F)(F)F)cc2)cn1 | 105 to 106
38 | CN(C)C1CCN(c2cc3c(Cl)cccc3c(=O)[nH]2)CC1 | 210 to 211
39 | CCC1=CC(=O)c2ccccc2C1=O | 87 to 88
40 | COc1ccc2sc(C(N)=O)c(Cl)c2c1 | 220 to 222
41 | CCCn1c(=O)c2[nH]c(-c3cc(C)n(CC(=O)Nc4ccc(OC)c(OC)c4)n3)nc2n(CCC)c1=O | 285 to 290
42 | N#CC(Cc1ccc(-c2ccccc2)cc1)C(=O)N=NO (stereo unspecified) | 172
43 | Cc1coc2cc(N3CCCCC3)c(Cl)cc12 | 82 to 84
44 | CC(=O)NCc1ccc2c(C#N)cn(C3CCN(CCc4ccc(F)cc4)CC3)c2c1 | 130 to 131
45 | CCOC(=O)c1cc2c(C)ccc(NS(=O)(=O)c3cccs3)c2[nH]1 | 180 to 181
46 | CC#CCOc1ccc(S(=O)(=O)C(C(=O)NO)C2CCN(C(C)=O)CC2)cc1 (stereo unspecified) | 103
47 | COCCn1nc2c(N)nc3ccccc3c2c1CC(C)(C)O | 171 to 172
48 | Cc1cc(S(N)(=O)=O)ccc1N1CN(c2ccccc2)CC1=O | 206 to 210

Row | SMILES | melting point [°C]
49 | CC1CCCN(c2cc3nc(C(C)(C)C)sc3cc2N)C1 (stereo unspecified) | 108 to 112
50 | COc1ccc(OCC(=O)O)c(OC)c1OC | 102 to 104
51 | COc1ccc(C#CCO)c2c1c(CCN(C)C)cn2C | 101 to 104
52 | COC1C(O)C(CO)OC1n1cnc2c(NC3CC=CCC3c3cccs3)ncnc21 (stereo unspecified) | 86 to 89
53 | O=C(O)COc1ccnc2ccccc12 | 274 to 276
54 | COc1cc(OS(=O)(=O)OC(F)(F)F)c2c(=O)c3ccc(Cl)cc3n(C)c2c1 | 234 to 236
55 | CC1(C)C2CC[C@@]1(N1CCCCC1)C(=O)C2 | 78 to 79
56 | CNC(=O)CCc1c(-c2ccccc2)n(C)c(=O)c2ccccc12 | 185 to 186
57 | CCc1nn(Cc2cc(=O)[nH]c(N)n2)c(CC)c1Oc1cc(Cl)cc(Cl)c1 | 238 to 240
58 | CC[C@]12CC[C@@H]3c4ccc(O)cc4CC[C@H]3[C@@H]1C=CC2=O | 230
59 | COc1nc(NC(=O)NS(=O)(=O)Cc2ccccc2C(C)OC(C)=O)nc(OC)n1 (stereo unspecified) | 90 to 95
60 | CC(C)(C)c1cc(CCN2CCN(CCc3ccc(CC(=O)O)cc3)CC2)cc(C(C)(C)C)c1O | 210 to 213
61 | CC(=O)OC(c1nccs1)(c1nccs1)C(F)(F)F | 82 to 84
62 | O=c1ccc(S(=O)(=O)n2cc(Cl)c3ccccc32)n[nH]1 | > 220
63 | COC(=O)c1cc(I)cc(OC)c1O | 104
64 | COCC1CCCN1S(=O)(=O)c1ccc2c(c1)C(=O)C1=NCC3(CCCC3)CN12 (stereo unspecified) | 171 to 172
65 | CCCc1nn(-c2ccc(C(F)(F)F)cn2)cc1CCCOc1ccc(C(C)(C)C(=O)O)cc1 | 84 to 85
66 | CCCn1c2cc(Cl)ccc2c(=O)c2cccn21 | 107 to 108
67 | O=c1c2c(N3CCNCC3)cc(Cl)cc2n(Cc2ccccc2)c(=O)n1Cc1ccccc1 | 115 to 123
68 | O=C(O)c1ccc([N+](=O)[O-])cn1 | 210 to 211
69 | CCOC(=O)CN(CP(=O)(ONN1CCOCC1)ONN1CCOCC1)C(=O)C(F)(F)F | 69 to 74
70 | ClCCCCSCc1ccc2ccccc2c1 | 47 to 49

Continued, values first:

Row | melting point [°C] | SMILES
71 | 89 to 90 | CCc1oc(CCOc2ccc(N)cc2)nc1-c1ccccc1
72 | 124 to 128 | Cc1cccc(-c2[nH]c(C(C)C)nc2-c2cccc(-c3ccc(NS(=O)(=O)C4CC4)cc3F)c2)n1
73 | 128 | CC(C)(C)OC(=O)[C@@H]1CS[C@H](c2ccccc2-c2ccccc2)N1C(=O)CNC(=O)Nc1cccc(CC(=O)O)c1
74 | 42 to 44 | CN(C)c1ccc(/C=C/c2c(F)cccc2Cl)cc1
75 | 121 to 122 | CC(C)(C)OC(=O)C(ON1C(=O)c2ccccc2C1=O)c1ccccc1 (stereo unspecified)
76 | 110 to 111 | Cc1ccc(-n2cc(C(=O)O)c(=O)c3cc(F)c(F)c(F)c32)cc1
77 | 92 to 93 | CCOC(=O)c1c(C(C)C)nn(-c2ccccc2)c1-c1ccc(F)cc1
78 | 155 to 156 | O=C(O)CCc1cn(Cc2ccc(OCc3ccc(-c4ccccc4)nc3)cc2)nc1-c1ccccc1
79 | 145 to 147 | Cc1cc(O)cc(C)c1N=Cc1ccccc1O
80 | 191 to 192 | O=C(O)c1ccc(NCCCc2ccc(Cl)cc2)cc1
81 | 215 to 216 | Cc1cc(C)c(C2C(=O)CC(c3ccccc3)CC2=O)c(C)c1 (stereo unspecified)
82 | 98 to 100 | CC(C)c1nc2ccccn2c(=O)c1-c1ccc(Cl)cc1
83 | 118 | COc1ccc2nc(C(=O)NCC(=O)O)c(OCc3ccccc3)cc2c1
84 | 271 to 273 | COc1ccc(CNC(=O)c2nc3scc(COCc4ccc(C(=O)O)cc4)c3c(=O)[nH]2)cc1
85 | 245 to 246 | Cc1c(Cl)ccc(NC(=O)CN2C(=O)c3ccccc3C2=O)c1Cl
86 | 216 to 218 | COc1cccc(C(=O)N(C)Cc2cccc3c2C(=O)N(C2CCC(=O)NC2=O)C3=O)c1 (stereo unspecified)

Row | melting point [°C] | SMILES
87 | 167 to 169 | CC(=Cc1ccc(C)cc1)COc1cc(C)c(NC=O)c(C)c1C
88 | 108 | CCCCc1nc(SC)c(C(=O)OCC)n1Cc1ccccc1-c1cccc(S(=O)(=O)NC#N)c1
89 | 135 to 136 | Cn1ccc(-c2cc(OC(F)F)n(-c3ccc(NC(=O)c4ccncc4F)cc3)n2)c1
90 | 189 to 191 | Cc1ccc(O)c(-c2nc(N(C)C)sc2C(c2ccc(N(C)C)cc2)c2ccc(N(C)C)cc2)c1
91 | 66 to 67 | O=C(c1cccs1)N(CCCSc1ccncc1)c1ccccc1
92 | 131 to 133 | Cc1cc2c(nc1C(O)c1ccc(C(F)(F)F)cc1)CCCCC2 (stereo unspecified)
93 | 223 to 225 | Cc1ccc(-c2ccc(/C=C/C(=O)O)s2)cc1
94 | 283 to 286 | O=C(O)C1Cc2c(ccc3c(=O)c4c(Cl)cccc4oc23)O1 (stereo unspecified)
95 | 113 to 114 | CCC(CC)c1ccc(Cl)c2nc3n(c12)CCCCN3c1ccc(C(=O)N(C)C)cc1C
96 | 118 to 120 | O=[N+]([O-])c1oc2ccc(NCc3ccccc3)cc2c1-c1ccccc1
97 | 197 to 198 | Fc1ccc(-c2nc[nH]c2-c2cccs2)cc1
98 | > 250 | Fc1ccc(Nc2ncnc3cc(-c4ccco4)ccc23)cc1Cl
99 | 107 to 109 | O=C(O)c1cccc(COc2ccccc2Cl)c1COc1ccccc1Cl
100 | 235 to 238 | CC(=O)NCCc1ccc(NC(=O)C=C2CC(C(=O)OCc3ccccc3)Nc3cc(Cl)cc(Cl)c32)cc1 (racemic)
101 | 146 to 148 | CN(Cc1cccc2ccccc12)c1ncnc2c(N3CCOCC3)nc(N3CCC(N(C)C)CC3)nc12
